Measurements taken from article PMC11964933, “Site-specific activation of the proton pump inhibitor rabeprazole by tetrathiolate zinc centres” (Nature Chemistry, 2025).
Where a chain is given by its changes, count along the chain named.

Legend:
[1] = biological target: T1, SBP-DENR (SBP-DENR* = C13A/C132A/C154A) (Homo sapiens, UniProt O43583); assay: affinity purification and click Cy5 in-gel labelling; assay type: cell-based; settings: covalent; intact HEK293 MSR cells, 10 µM, 15 min, 37 °C
T1 sequence (O43583 1-198): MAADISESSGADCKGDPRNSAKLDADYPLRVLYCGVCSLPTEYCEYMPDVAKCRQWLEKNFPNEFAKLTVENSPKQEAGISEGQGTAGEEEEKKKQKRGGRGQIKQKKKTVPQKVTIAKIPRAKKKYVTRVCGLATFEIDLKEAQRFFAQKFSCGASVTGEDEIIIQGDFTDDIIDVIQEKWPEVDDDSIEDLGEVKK

[2] = biological target: T2, His-DENR–MCTS1 complex (recombinant WT DENR; DENR* = C13A/C132A/C154A) (Homo sapiens, UniProt O43583); assay: in-gel Cy5 labelling after click chemistry; assay type: binding; settings: covalent; with NEM; zinc-dependent
T2 construct: His-tagged DENR co-expressed with MCTS1 in Escherichia coli; heterodimeric complex; C4 zinc site C34/C37/C44/C53
T2 sequence (O43583 2-198): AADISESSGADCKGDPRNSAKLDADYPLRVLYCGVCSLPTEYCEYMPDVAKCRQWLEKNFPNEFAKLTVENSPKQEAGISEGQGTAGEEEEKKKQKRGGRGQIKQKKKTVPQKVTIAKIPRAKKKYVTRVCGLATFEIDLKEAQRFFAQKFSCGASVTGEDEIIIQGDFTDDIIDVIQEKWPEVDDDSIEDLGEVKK
T2 sequence (Q9ULC4 1-181 partner): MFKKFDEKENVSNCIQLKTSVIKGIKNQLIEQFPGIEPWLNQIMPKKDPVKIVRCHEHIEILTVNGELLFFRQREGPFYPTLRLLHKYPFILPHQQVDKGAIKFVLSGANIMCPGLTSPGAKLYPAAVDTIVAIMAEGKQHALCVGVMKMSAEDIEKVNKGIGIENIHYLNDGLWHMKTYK

[3] = biological target: T2, His-DENR–MCTS1 complex (recombinant WT DENR; DENR* = C13A/C132A/C154A); assay: LC-MS/MS adduct mapping; assay type: binding; settings: covalent; fivefold excess, iodoacetamide, 15 min, r.t., pH 7.5; sites C44 and C34
[4] = biological target: T3, His-DENR–MCTS1 complex (recombinant WT DENR; DENR* = C13A/C132A/C154A) (Homo sapiens, UniProt O43583, C13A/C132A/C154A); assay: differential alkylation LC-MS; intact protein MS; Zn release (PAR); assay type: binding; settings: covalent; 25 µM rabeprazole, fivefold excess, 15 min, r.t., pH 7.5; site C44
T3 construct: His-tagged DENR co-expressed with MCTS1 in Escherichia coli; heterodimeric complex; C4 zinc site C34/C37/C44/C53
T3 sequence (O43583 2-198 C13A/C132A/C154A): T2 sequence (O43583 2-198) with C12A, C131A, C153A
T3 sequence (Q9ULC4 1-181 partner): T2 sequence (Q9ULC4 1-181 partner)

[5] = biological target: T4, 15N-labelled DENR26–98–MCTS1 complex (Homo sapiens, UniProt O43583); assay: 1H NMR and 1H-15N HSQC; assay type: binding; settings: covalent; fivefold excess, pH 7.5, 298 K
T4 construct: gene DENR; DENR residues 26-98, 15N-labelled, in complex with MCTS1
T4 sequence (O43583 26-98): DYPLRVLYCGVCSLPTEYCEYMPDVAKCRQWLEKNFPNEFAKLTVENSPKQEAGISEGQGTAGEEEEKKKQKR
T4 sequence (Q9ULC4 1-181 partner): T2 sequence (Q9ULC4 1-181 partner)

Row | occupancy [4] | SMILES | affinity purification and click Cy5 in-gel labelling [1] | in-gel Cy5 labelling after click chemistry [2] | LC-MS/MS adduct mapping [3] | 1H NMR and 1H-15N HSQC [5]
1 |  | Cc1c(OCCCN=[N+]=[N-])ccnc1C[S+]([O-])c1nc2ccccc2[nH]1 (centres unmarked) [Rabazi] | led to the formation of an SBP-DENR–Rabazi disulfide conjugate | Rabazi conjugation to recombinant DENR leads to a rather weak and diffuse band |  | 
2 | ~ 80% | COCCCOc1ccnc(C[S+]([O-])c2nc3ccccc3[nH]2)c1C (centres unmarked) [rabeprazole] |  |  | we identified the hydrolysed form of rabeprazole on cysteines C44 | DENR exhibited time-dependent chemical shift perturbations of the amide peaks during incubation with rabeprazole
